In PubChem BioAssay AID1508591 one finds half-life data, which are given here for 37 compounds.

Each structure is given as a SMILES string.

The conditions of this data set: rat; liver microsomes; pH 7.4; 15.0 min; 1.0 µM. (In general: Liver microsomes are a subcellular fraction often used to study metabolism.)
In the case of `Cc1nc(NC(=O)C2CC(=O)N(c3n[nH]c4cc(Br)ccc34)C2)sc1C` (configuration not stated), the half-life was determined as 18.5 min.
Consider `COc1ccc(CCN2CCC(Nc3nc4ccccc4n3Cc3ccc(F)cc3)CC2)cc1`, for which the half-life is 4.18 min.
`C=CC(=O)Nc1cccc(Oc2nc(Nc3ccc(N4CCN(C)CC4)cc3)ncc2Cl)c1` gave a half-life of 3.06 min.
The compound `Cn1c(=O)c2cc(C(=O)NCCCN3CCN(c4ccccc4F)CC3)sc2c2ccccc21` came in with a half-life of 1.97 min.
In the case of `CC1=C(C(=O)Nc2ccccc2Cl)C(c2ccccc2Br)N=C(Nc2nc3ccccc3o2)N1` (configuration not stated), the half-life is > 30 min.
Compound `CCCc1cc(C)[nH]c(=O)c1CNC(=O)c1cc(-c2ccc(N3CCN(C(C)C)CC3)nc2)cc2c1cnn2C(C)C` registered a half-life of 25 min.
For the compound `Cc1cc(C)c(C(=O)Nc2cccc([S+](=O)([O-])N3CCCCCC3)c2)[nH]1`, the half-life amounted to 1.7 min.
Compound `CSc1nn(Cc2cccc(C)c2)c(N)c1S(=O)(=O)c1ccccc1` registered a half-life of 1.2 min.
With `COc1ccc(OC)c(-n2c3c(cc(-c4nc(-c5ccc(Cl)cc5)cs4)c2=O)C(=O)CC(C)(C)C3)c1`, the half-life was > 30 min.
The compound `O=C(CCCN1CCC(O)(c2cccc(C(F)(F)F)c2)CC1)c1ccc(F)cc1` gave a half-life of 20.5 min.
`Cc1ccc(S(=O)(=O)Nc2ccc(Cl)cc2C(=O)Nc2nc(-c3ccccc3)cs2)cc1` registered a half-life of 3.4 min.
For `Cn1nc(-c2ccccc2F)c2cc(C(=O)Nc3cc(F)ccc3F)sc21`, the half-life turned out to be 26.2 min.
Regarding `c1ccc2c(N3CCOCC3)nc(-c3ccncc3)nc2c1`, the half-life came to 10 min.
As for `Cc1cc(SCc2sc(-c3ccc(C(F)(F)F)cc3)nc2C)ccc1OCC(=O)O`, the half-life is > 30 min.
Turning to `CCOc1ccc(Nc2nc(C)c(NC(=O)c3ccc(C)cc3)c(Nc3ccc(OCC)cc3)n2)cc1`, the half-life worked out at 8.86 min.
Turning to `COc1ccc(NC(=O)C2=C(C)NC(Nc3nc4ccccc4o3)=NC2c2ccccc2Br)cc1` (configuration not stated), the half-life was 21 min.
`Cc1ccc(S(=O)(=O)Nc2cnccc2C(=O)Nc2nc(-c3cccc(F)c3)cs2)cc1` had a half-life of 27 min.
Turning to `COc1cccc(NC(=O)c2cccc3c(=O)c4c([nH]c23)CCCC4)c1`, the half-life is 16.3 min.
In turn, `Nc1nc2c(s1)C(c1ccc(Br)cc1)CC(=O)N2` (configuration not stated) came in with a half-life of 23.8 min.
In the case of `NC(=O)C1CCN(c2ncc(-c3ccc4c(c3)OCCO4)s2)CC1` it was 4.94 min.
With `CC(C)(C)C(=O)C(Oc1ccc(Cl)cc1)n1ccnc1` (configuration not stated), the half-life is > 30 min.
Consider `O=C(c1ccccc1)N1CCC(c2nn(-c3ccc(F)cc3)c(=O)[nH]2)CC1`, for which the half-life is > 30 min.
On to `O=C(Nc1ccc([N+](=O)[O-])cc1Cl)c1cc(Cl)ccc1O`, for which the half-life is > 30 min.
With `CC(=O)Nc1ccc(C(=O)Nc2ccccc2N)cc1`, the half-life was > 30 min.
As to `CN1C(=O)C(=O)N2C(=C[C@]3(c4c[nH]c5ccccc45)c4ccccc4N[C@H]23)C1=O`, the half-life was determined as 4.83 min.
Turning to `Oc1ccc(CNc2cccc(F)c2)c2cccnc12`, the half-life is 4.1 min.
In the case of `COc1cc(OC)cc(-c2csc(N3CCC(C(N)=O)CC3)n2)c1` it was 2.09 min.
Turning to `CN1C(=O)c2ccccc2[S@](=O)c2ccc(C(=O)NCc3cccnc3)cc21`, the half-life was > 30 min.
`NC(=O)C1CCN(c2nc(-c3cccc(Cl)c3)cs2)CC1` showed a half-life of 1.88 min.
With `c1ccc(Nc2cc3c(cn2)CN(Cc2ccsc2)CCN3)cc1`, the half-life is 1.74 min.
Turning to `O=C(Nc1nc2cc(C(F)(F)F)cc(NC3CC3)n2n1)c1cccnc1`, the half-life is > 30 min.
As for `CNC(=O)C1CCN(c2nc(-c3ccc(Br)cc3)cs2)CC1`, the half-life was 26.2 min.
Take `Fc1cc(F)cc(Nc2nc(-c3ccncc3)nc3ccccc23)c1`: the half-life was found to be 15 min.
`CCCN1C(CC(C)C)=NS(=O)(=O)c2cc(NC(=O)c3ccco3)ccc21`: the half-life turned out to be 9.21 min.
As for `FC(F)(F)c1cccc(Nc2ccc(CNc3nc(-c4ccccc4C(F)(F)F)nc4ccccc34)cc2)c1`, the half-life was 15.6 min.
In turn, `O=C(O)[C@H]1O[C@H]1C(=O)O` returned a half-life of 14.7 min.
Regarding `COC(=O)c1ccccc1NC(=O)c1ccccc1OC(F)F`, the half-life is 2.8 min.

For orientation: half-life means the time in which the quantity being followed falls by half. A lower half-life goes with rapid decline.
